From patent US6441006B2, “Pharmaceutical compositions and methods for use” (Targacept, Inc., priority 1998, dated 2002)

Experiments:
CNS nicotinic receptors [1] = target: T1, CNS nicotinic receptors (Rattus norvegicus, UniProt P09483+P12390); experiment: Binding to relevant receptor sites; conditions: calculated from IC50 values using the method of Cheng et al.
T1 construct: Ki
Procedure: Binding of the compounds to relevant receptor sites was determined in accordance with the techniques described in U.S. Pat. No. 5,597,919 to Dull et al. Inhibition constants (Ki values), reported in nM, were calculated from the IC50 values using the method of Cheng et al., Biochem, Pharmacol. 22:3099 (1973).

[2] = tested on: ganglia-type nicotinic acetylcholine receptors; experiment: Interaction with ganglion receptors; assay type: cell-based; conditions: relative to (S)-(-)-nicotine
Procedure: (§1) The determination of the interaction of the compounds with ganglionic receptors was carried out in accordance with the techniques described in U.S. Pat. No. 5,597,919 to Dull et al. The maximal activation for individual compounds (Emax) was determined as a percentage of the maximal activation induced by (S)-(−)-nicotine. Reported Emax values represent the amount released relative to (S)-(−)-nicotine on a percentage basis. […] Such preferable compounds have the capability to activate human CNS receptors without activating ganglia-type nicotinic acetylcholine receptors. Thus, there is provided a therapeutic window for utilization in the treatment of CNS disorders. […] The compounds begin to cause effects at ganglia only when employed in amounts of many times those required to activate dopamine release.
The determination of the interaction of the compounds with ganglionic receptors was carried out in accordance with the techniques described in U.S. Pat. No. 5,597,919 to Dull et al. The maximal activation for individual compounds (Emax) was determined as a percentage of the maximal activation induced by (S)-(−)-nicotine. Reported Emax values represent the amount released relative to (S)-(−)-nicotine on a percentage basis.

[3] = target: T2, muscle-type nicotinic acetylcholine receptors (Homo sapiens, UniProt P02708+P07510+Q07001); experiment: Interaction with muscle receptors; assay type: cell-based; conditions: relative to (S)-(-)-nicotine
T2 construct: endogenous in cells; host or cells: TE671/RD (own knowledge of the cited US 5,597,919)
T2 sequence (P02708 21-457): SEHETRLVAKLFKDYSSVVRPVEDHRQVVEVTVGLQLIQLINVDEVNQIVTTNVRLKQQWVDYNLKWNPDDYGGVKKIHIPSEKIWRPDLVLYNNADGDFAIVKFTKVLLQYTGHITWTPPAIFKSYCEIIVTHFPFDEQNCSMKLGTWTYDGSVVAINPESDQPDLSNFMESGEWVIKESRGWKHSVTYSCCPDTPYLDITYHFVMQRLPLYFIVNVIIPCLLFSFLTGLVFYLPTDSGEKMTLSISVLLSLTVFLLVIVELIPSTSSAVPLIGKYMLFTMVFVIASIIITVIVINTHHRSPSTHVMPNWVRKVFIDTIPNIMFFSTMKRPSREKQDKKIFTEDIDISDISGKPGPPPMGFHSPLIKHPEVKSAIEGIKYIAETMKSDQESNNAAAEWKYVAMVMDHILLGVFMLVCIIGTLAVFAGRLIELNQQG
T2 sequence (P11230 24-501 partner): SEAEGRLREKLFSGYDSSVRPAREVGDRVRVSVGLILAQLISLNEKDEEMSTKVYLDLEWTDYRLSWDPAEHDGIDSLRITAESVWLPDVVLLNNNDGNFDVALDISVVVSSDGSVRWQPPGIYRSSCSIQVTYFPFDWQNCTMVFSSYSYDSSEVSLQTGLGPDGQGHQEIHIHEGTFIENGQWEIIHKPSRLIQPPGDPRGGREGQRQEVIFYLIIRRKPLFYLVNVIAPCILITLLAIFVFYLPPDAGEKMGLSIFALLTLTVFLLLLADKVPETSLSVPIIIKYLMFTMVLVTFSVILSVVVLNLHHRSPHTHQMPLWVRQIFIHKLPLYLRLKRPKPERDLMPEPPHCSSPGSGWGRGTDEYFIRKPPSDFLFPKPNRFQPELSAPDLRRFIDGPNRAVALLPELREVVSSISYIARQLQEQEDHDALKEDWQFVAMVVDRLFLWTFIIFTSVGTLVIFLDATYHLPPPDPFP
T2 sequence (Q07001 22-517): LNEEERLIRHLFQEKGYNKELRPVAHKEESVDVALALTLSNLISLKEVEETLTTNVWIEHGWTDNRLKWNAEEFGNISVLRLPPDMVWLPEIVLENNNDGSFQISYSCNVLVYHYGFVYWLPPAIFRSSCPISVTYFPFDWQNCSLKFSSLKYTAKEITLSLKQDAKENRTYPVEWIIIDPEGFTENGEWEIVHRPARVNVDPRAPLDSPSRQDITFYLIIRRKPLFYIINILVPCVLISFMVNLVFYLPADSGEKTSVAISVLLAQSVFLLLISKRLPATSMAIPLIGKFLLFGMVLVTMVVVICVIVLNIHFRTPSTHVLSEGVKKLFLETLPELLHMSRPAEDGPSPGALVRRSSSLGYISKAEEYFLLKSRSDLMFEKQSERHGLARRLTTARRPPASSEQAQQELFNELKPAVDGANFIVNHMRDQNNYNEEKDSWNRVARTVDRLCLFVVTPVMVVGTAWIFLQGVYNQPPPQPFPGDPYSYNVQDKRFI
T2 sequence (P07510 23-517): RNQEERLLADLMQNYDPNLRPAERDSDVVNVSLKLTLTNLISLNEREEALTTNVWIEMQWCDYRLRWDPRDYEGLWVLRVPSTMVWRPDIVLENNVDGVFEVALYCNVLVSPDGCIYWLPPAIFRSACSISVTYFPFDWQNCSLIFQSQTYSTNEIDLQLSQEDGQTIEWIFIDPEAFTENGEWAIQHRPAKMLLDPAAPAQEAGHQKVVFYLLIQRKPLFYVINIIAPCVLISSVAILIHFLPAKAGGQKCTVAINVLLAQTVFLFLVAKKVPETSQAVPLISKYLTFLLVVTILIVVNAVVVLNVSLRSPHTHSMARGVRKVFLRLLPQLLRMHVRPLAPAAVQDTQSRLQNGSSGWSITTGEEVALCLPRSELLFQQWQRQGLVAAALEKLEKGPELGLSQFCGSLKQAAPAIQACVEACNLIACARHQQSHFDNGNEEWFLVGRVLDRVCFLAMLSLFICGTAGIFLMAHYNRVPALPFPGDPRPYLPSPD
Procedure: as §1, with “muscle” for “ganglionic”, “muscle-type” for “ganglia-type”, “cause muscle” for “cause”, “effects” for “effects at ganglia”

CNS nicotinic receptors [4] = target: T3, CNS nicotinic receptors; experiment: Rubidium release; assay type: biochemical
T3 construct: Emax, rubidium release; other: relative to 300 uM tetramethylammonium ion
Procedure: Rubidium release was measured using the techniques described in Bencherif et al., JPET, 279: 1413-1421 (1996). Reported EC50 values are expressed in nM, and Emax values represent the amount of rubidium ion released relative to 300 uM tetranmethylammonium ion, on a percentage basis.

laboratory rats = experiment: Step-through passive avoidance, scopolamine induced amnesia; assay type: in vivo, rat; conditions: 0.3 to 3 umol/kg subcutaneous, 0.5 umol/kg scopolamine
Procedure: A Gemini Avoidance System (San Diego Instruments) were used to evaluate animals in a passive avoidance experiment. During the period of habituation, laboratory rats received a subcutaneous injection of saline. On the acquisition day, each rat received a subcutaneous injection of 0.5 umol/kg scopolamine (or saline in the case of the vehicle control group) 30 minutes prior to being placed in the chambers. Five minutes following scopolamine injection, (or 25 minutes before being placed in the chamber), each rat was administered a subcutaneous injection with one of four doses of the compound. Thirty minutes following the scopolamine or vehicle injection, each rat was placed in the brightly illuminated chamber, facing away from the sliding door. After 10 seconds, the door separating the chambers opened allowing access to the dark chamber. The time to enter the dark chamber was measured. Immediately upon entering the dark chamber, the rat received a mild foot shock (0.5 mAmp) for 2 seconds. Twenty four hours following training, each rat was placed in the light chamber facing away from the sliding door. […] Statistical differences in latencies (latency during acquisition and retention trials) were analyzed by Kruskal-Wallis one-way analysis of variance on ranks followed by the either of two-tailed Mann-Whitney U-test or Newman-Keuls analog test if values of p less than 0.05 were obtained. […]

dopamine release = experiment: Dopamine release; assay type: biochemical
Procedure: Dopamine release was measured using the techniques described in U.S. Pat. No. 5,597,919 to Dull et al. Release is expressed as a percentage of release obtained with a concentration of (S)-(−)-nicotine resulting in maximal effects. Reported EC50 values are expressed in nM, and Emax values represent the amount released relative to (S)-(−)-nicotine on a percentage basis.

T1 sequence (P09483 31-630): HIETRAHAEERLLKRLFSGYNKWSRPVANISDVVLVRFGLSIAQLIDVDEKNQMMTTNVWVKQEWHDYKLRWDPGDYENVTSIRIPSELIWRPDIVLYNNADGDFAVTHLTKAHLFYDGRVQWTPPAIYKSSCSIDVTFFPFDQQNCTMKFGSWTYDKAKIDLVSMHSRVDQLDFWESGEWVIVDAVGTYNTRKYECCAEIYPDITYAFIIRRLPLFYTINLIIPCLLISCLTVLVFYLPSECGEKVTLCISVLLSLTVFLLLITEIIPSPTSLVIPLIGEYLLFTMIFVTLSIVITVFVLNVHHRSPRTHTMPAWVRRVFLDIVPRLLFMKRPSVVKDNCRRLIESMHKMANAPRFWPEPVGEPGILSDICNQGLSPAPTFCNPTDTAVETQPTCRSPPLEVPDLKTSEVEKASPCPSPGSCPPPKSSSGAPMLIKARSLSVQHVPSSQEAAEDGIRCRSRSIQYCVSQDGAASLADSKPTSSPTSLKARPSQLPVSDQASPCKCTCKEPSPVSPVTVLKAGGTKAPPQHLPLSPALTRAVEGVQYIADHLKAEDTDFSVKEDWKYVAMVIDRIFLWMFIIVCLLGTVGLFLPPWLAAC
T1 sequence (P12390 25-500): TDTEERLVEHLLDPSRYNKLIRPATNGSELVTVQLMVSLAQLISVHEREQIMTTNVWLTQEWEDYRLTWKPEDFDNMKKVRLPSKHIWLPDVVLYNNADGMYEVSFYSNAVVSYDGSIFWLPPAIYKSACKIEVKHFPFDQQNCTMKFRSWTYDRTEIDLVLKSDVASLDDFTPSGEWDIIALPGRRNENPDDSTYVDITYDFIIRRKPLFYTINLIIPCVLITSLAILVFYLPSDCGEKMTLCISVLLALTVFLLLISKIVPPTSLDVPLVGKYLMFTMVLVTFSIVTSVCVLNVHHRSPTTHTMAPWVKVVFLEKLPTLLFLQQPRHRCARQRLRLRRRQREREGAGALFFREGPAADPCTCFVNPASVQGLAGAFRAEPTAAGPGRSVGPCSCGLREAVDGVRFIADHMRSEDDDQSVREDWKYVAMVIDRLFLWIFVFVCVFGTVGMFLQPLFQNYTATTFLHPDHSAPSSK

Substance: (3-(3-Pyridyloxy)propyl)methylamine Hemigalactarate [Example 5]
- Ki (CNS nicotinic receptors [1]): 0.013 µM
- Emax at ganglionic-type receptors [2]: 93%
- Emax at muscle-type receptors [3]: 0%
- EC50 (CNS nicotinic receptors [4]): 0.96 µM
- Emax, rubidium release (CNS nicotinic receptors [4]; relative to 300 uM tetramethylammonium ion): 83%
- reversal of scopolamine induced amnesia (laboratory rats): significant reversal of scopolamine induced amnesia
- EC50 (dopamine release): 0.369 µM
- Emax, dopamine release (dopamine release; amount released relative to (S)-(-)-nicotine): 96%
